# Laboratory results from patent US10022354B2, “Pyrrolidine amide compounds as histone demethylase inhibitors” (GENENTECH, INC., priority 2014, dated 2018).
# Legend:
# [1] = system: H3K4Me3 mark level in PC9 cells; assay: KDM5 Cell Assay (H3K4Me3 mark level, PC9 HTRF); assay type: cell-based; conditions: Homo sapiens, PC-9, 120 hours at 37° C.
# Description: PC9 cells were seeded in a 384 well plate (2000 cells/well) with a test compound and incubated for 120 hours at 37° C. H3K4Me3 mark level was assessed using HTRF reagents from CisBio. Briefly, media was removed and cells were lysed in 20 μL of Epigeneous Cell Histone lysis buffer C for 45 min at 26° C., shaking. 10 μL of 4 μg/mL acceptor antibody (H3K4me3-d2) and 10 μL of 1.2 μg/mL donor antibody (Total H3-K) in Cell Histone detection buffer were added and the mixture was incubated at 26° C. for 1 hour. Assay plate was read subsequently on Envision (Perkin Elmer). Each compound was run in duplicate. Data were normalized to DMSO treated wells as the low response and EC50's were calculate using a four-parameter fit.
# full length KDM5A enzyme = full length KDM5A enzyme (Homo sapiens (Human), UniProt P29375); assay: KDM5 Enzyme Assay (KDM5A HTRF); assay type: biochemical; conditions: 2 nM full length KDM5A, 100 nM H3K4Me3 peptide, 1 uM 2-OG, 30 min room temperature
# Method in brief: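 KDM5A demethylase activity was assessed by HTRF using in-house expressed and purified full length human KDM5A at 2 nM with 100 nM biotinylated H3K4Me3 peptide and 1 uM 2-OG. The 10 uL reaction also held 100 uM Fe^2+, 500 uM ascorbate, 50 mM HEPES pH 7.0, 0.01% Triton-X 100, 2 mM DTT and 0.25% DMSO. Detection used Eu-labeled H3K4me1-2 antibody and streptavidin-XL665, read on an Envision reader.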
# Sequence of full length KDM5A enzyme (P29375 whole entry): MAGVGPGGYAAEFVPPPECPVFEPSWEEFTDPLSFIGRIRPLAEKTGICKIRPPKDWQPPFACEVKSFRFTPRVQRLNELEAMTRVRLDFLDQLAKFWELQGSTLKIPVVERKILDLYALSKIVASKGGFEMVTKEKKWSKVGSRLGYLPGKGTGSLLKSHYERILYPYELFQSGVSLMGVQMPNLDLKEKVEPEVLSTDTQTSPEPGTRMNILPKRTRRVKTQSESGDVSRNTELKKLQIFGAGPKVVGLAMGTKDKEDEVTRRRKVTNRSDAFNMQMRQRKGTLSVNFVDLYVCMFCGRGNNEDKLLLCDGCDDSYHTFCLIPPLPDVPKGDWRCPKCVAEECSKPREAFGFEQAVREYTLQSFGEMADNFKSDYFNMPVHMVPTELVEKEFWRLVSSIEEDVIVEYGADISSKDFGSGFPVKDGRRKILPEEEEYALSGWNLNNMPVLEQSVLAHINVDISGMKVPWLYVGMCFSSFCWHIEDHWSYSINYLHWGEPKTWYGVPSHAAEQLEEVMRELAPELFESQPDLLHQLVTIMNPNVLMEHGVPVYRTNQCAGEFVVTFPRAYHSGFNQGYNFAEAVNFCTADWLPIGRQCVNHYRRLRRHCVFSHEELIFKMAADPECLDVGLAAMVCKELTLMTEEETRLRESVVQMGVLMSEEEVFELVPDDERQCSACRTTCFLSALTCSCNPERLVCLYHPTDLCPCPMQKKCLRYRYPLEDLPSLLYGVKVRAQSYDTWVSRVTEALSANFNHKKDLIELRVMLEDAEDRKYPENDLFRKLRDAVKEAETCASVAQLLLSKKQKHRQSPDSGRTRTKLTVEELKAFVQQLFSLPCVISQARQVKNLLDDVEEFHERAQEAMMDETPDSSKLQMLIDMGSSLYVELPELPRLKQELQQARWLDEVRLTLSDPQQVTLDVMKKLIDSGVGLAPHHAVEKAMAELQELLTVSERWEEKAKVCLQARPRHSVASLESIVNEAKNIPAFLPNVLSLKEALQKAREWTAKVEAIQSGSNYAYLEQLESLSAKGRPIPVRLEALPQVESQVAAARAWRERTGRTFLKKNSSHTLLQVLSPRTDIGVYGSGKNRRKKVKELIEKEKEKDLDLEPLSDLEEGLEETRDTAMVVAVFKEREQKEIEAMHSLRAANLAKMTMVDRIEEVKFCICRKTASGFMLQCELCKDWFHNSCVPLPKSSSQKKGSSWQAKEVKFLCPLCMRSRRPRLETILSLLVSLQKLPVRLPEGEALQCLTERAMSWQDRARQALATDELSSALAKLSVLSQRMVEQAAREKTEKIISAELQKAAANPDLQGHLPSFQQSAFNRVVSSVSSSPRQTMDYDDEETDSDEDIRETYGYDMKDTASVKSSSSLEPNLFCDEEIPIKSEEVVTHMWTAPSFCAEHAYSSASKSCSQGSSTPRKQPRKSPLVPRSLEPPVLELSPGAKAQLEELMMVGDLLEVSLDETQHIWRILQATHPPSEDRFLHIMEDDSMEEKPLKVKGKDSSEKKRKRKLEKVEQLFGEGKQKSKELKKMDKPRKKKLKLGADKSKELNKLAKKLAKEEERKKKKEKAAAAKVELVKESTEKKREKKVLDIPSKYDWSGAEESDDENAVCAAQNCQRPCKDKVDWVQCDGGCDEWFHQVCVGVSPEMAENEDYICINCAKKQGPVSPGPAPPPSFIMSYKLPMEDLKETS
EC50 [1] [nM],IC50 (full length KDM5A enzyme) [nM],SMILES
19,0.16,CC(C)c1cc(C(=O)N2CCC(n3cc(Br)c(C4CC4)n3)C2)[nH]n1 (stereo not drawn) [Example 234]
7,0.15,CC(C)c1cc(C(=O)N2CCC(n3cc(Br)c(C(C)C)n3)C2)[nH]n1 (stereo not drawn) [Example 238]
23,0.3,CC(C)c1cc(C(=O)N2CC[C@@H](n3ncc4c(F)cccc43)C2)[nH]n1 [Example 246]
